Series [1] can be described thus: Selective Cu. The conditions noted are these: for Average half-time of Cu(II) withdrawal, Cu(II), D/F / Average half-time of Cu(II) withdrawal, Cu(II), DMEM 10%: Cu(II) alone, Cu(II)=shuttle=5 µM, 25°C, NBD emission at 545 nm, n=3; for Average half-time of Cu(II) withdrawal, Cu(II), D/F: D/F 100%; for Cu(II) withdrawn from D/F media over the measurement duration: D/F media spiked with 5 µM Cu(II), shuttle 5 µM, NBD emission followed for 5h. The series is classed as binding.

Series [2] addresses Cu(II)Aβ1-16 (Homo sapiens, UniProt P05067). The series can be described thus: Retrieval of Cu. The series is classed as binding. The conditions noted are these: 25°C; for time to complete retrieval of Cu(II) from Aβ1-16: HEPES buffer / 10% DMEM, shuttle 5 µM, Aβ1-16 10 µM, Cu(II) 5 µM; for Kinetics of Cu(II) transfer from Aß1-16 to shuttle, DMEM 10%: shuttle=Cu(II)=5 µM, Aß1-16=10 µM, 10% DMEM, NBD emission 545 nm, n=3.

Series [3] is described as follows: Reduction/release of shuttle-bound Cu. The series is classed as physicochemical. The conditions noted are these: 5 mM GSH, HEPES 100 mM pH 7.4.
The subject of series [4] is PC12 cells. Briefly: Rescue of PC12 cells from Cu. The series is classed as cell-based. Conditions: 5 µM shuttle, 10 µM Cu(II)Aβ1-16 0.5:1, AscH-, 10% DMEM, 24h, MTT, n=3.
The test system of series [5] is microglial cells in OHSC. Briefly: Microglia proliferation and activation in OHSC. In kind it is cell-based, CD1 mice. Conditions: 10 µM Cu(II)=shuttle, 20 µM Aβ1-40/42, 48h, Iba1 staining, n=3.
The test system of series [6] is PC12 cells. Briefly: Toxicity of shuttles on PC12 cells. The series is classed as cell-based. The conditions noted are these: 5 x 10^4 PC12 cells, 24h, 100% DMEM media.

As for “H2N-His-Dap-His-αR5W4^NBD [HDapH-αR5W4^NBD]”, in series [1], the “Average half-time of Cu(II) withdrawal, Cu(II), D/F” value is listed as below 1 min; the “Average half-time of Cu(II) withdrawal, Cu(II), DMEM 10%” value is given as below 1 min; the “Cu(II) withdrawn from D/F media over the measurement duration” value is on record as “completely withdrew”. In addition, in series [2], the “time to complete retrieval of Cu(II) from Aβ1-16” value is “less than two minutes” and the “Kinetics of Cu(II) transfer from Aß1-16 to shuttle, DMEM 10%” value is 14.5 ± 3.8 s. In addition, the “half-time of reduction of shuttle-bound Cu(II) by GSH (in words)” value in series [3] was “only a few minutes”. Moreover, the “rescue of Cu(II)Aβ1-16-induced toxicity in PC12 cells” value in series [4] is “reversed”. The “effect on Cu(II)(Aβ1-40/42)-induced microglial cell proliferation in OHSC” value in series [5] was “reduced microglial cell proliferation”.

Regarding “H2N-Dap-His-His-αR5W4^NBD [DapHH-αR5W4^NBD]”, in series [1], the “Average half-time of Cu(II) withdrawal, Cu(II), D/F” value stood at 4.3 ± 0.6 min; the “Average half-time of Cu(II) withdrawal, Cu(II), DMEM 10%” value is given as below 1 min; the “Cu(II) withdrawn from D/F media over the measurement duration” value is recorded as above 80%. In series [2], the “time to complete retrieval of Cu(II) from Aβ1-16” value is “less than two minutes” and the “Kinetics of Cu(II) transfer from Aß1-16 to shuttle, DMEM 10%” value turned out to be 47.9 ± 9.2 s. For the same compound, the “half-time of reduction of shuttle-bound Cu(II) by GSH (in words)” value in series [3] is “only a few minutes”. The “rescue of Cu(II)Aβ1-16-induced toxicity in PC12 cells” value in series [4] is recorded as “reversed”. Further, in series [5], the “effect on Cu(II)(Aβ1-40/42)-induced microglial cell proliferation in OHSC” value was “reduced microglial cell proliferation”.

For `CN=C([S-])N/N=C/C=N/NC([S-])=NC.[Cu+2]` [Cu(II)GTSM], the “toxicity to PC12 cells (in words)” value in series [6] is “toxic to PC12 cells”.

For `CNC(=S)NN=CC=NNC(=S)NC` [GTSM, glyoxal-bis(4-methylthiosemicarbazonato)], in series [6], the “toxicity to PC12 cells (in words)” value was “toxic at nanomolar concentration”.

The values above are taken from paper doi:10.1101/2024.09.04.611242v3 (bioRxiv, 2024).
